Reference: US10363231B2, “Compounds and methods of treating ocular disorders” (CASE WESTERN RESERVE UNIVERSITY, priority 2014, dated 2019)

Experiments:
RPE65 = target: T1, RPE65 (Bos taurus, UniProt Q28175); assay: Retinoid isomerase activity assay (11-cis-retinol production in RPE microsomes); type: biochemical, Bovine; conditions: for IC50: primary amine, decline in 11-cis-retinol production in RPE microsomes, read-out: Inhibition of RPE65
T1 construct: from tissue; host or cells: bovine retinal pigment epithelium (RPE) microsomes
Method: (§1) Bovine RPE microsomes were isolated from RPE homogenates by differential centrifugation as previously described. The resulting microsomal precipitate was resuspended in 10 mM Bis-Tris propane/HCl buffer, pH 7.4, to achieve a total protein concentration of […]. Then the mixture was placed in a quartz cuvette and irradiated for 6 min at 4° C. with a ChromatoUVE transilluminator (model TM-15; UVP) to eliminate residual retinoids. After irradiation, DTT was added to the RPE microsomal mixture to achieve a final concentration of 5 mM.
[…] The resulting mixture was pre incubated at room temperature for 5 min. Then 1 μl of all-trans-retinol (in DMF, final concentration 20 μM) was added. The resulting mixture was incubated at 37° C. for 15 min to 2 h. The reaction was quenched by adding 300 μl of methanol, and products were extracted with 300 μl of hexanes. Production of 11-cis-retinol was quantified by normal phase HPLC with 10% (v/v) ethyl acetate in hexanes as the eluent at a flow rate of 1.4 ml·min^−1. Retinoids were detected by monitoring their absorbance at 325 nm and quantified based on a standard curve representing the relationship between the amount of 11-cis-retinol and the area under the corresponding chromatographic peak.
Primary amines of compounds derived from the aldehydes were subsequently tested for their ability to inhibit the RPE65-dependent retinoid isomerization reaction in dose- and time dependent reactions as exemplified by QEB-B-001 (FIG. 3B). Amines were incubated with RPE microsomes in the presence of all-trans-retinol and the 11-cis-retinoid binding protein, CRALBP.
Progress of the enzymatic reaction was monitored by HPLC separation of retinoids and quantification of 11-cis-retinol with a decrease of 11-cis-retinol production reflecting inhibition of RPE65 by a tested amine. […] This moderate inhibition could be enhanced by shortening the polyene chain length (TEA amines) or diminished by introducing an extra positive charge into the tested compounds (QEA-G amines).

LRAT = target: T2, LRAT (Bos taurus, UniProt Q9BGL2); assay: LRAT activity assay with bovine RPE microsomes (esterification of the corresponding primary alcohols); type: biochemical; conditions: percentage of the corresponding primary alcohol esterified by LRAT in 1 h at 37° C; 10 μM; RPE microsomes
T2 construct: incubated with RPF microsomes that served as a source of LRAT enzymatic activity; from tissue; host or cells: bovine retinal pigment epithelium (RPE) microsomes
T2 sequence (Q9BGL2 1-230): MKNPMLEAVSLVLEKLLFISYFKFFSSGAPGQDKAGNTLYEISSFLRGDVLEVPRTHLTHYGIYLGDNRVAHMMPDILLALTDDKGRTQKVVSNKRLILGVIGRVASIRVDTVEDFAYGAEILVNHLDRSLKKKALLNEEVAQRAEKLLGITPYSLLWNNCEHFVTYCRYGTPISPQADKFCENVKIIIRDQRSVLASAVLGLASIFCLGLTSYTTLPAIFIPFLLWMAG
Method: as §1
Two μl of a synthesized primary alcohol or amine dissolved in DMF (final concentration 10 μM) and 2 μl of 1,2-diheptanoyl-sn-glicerol-3-phosphocholine (water, final concentration 1 mM) were added to 200 μl of 10 mM Bis-Tris propane/HCl buffer, pH 7.4, containing 150 μg of RPE microsomes and 1% (v/w) BSA. The resulting mixture was incubated at 37° C. for 1 h. The reaction was quenched by adding 300 μl of methanol. Most reaction products were extracted with 300 μl of hexanes, except for products from the QEA-C-006 and QEA-G groups which were extracted by adding 300 μl of ethyl acetate and 300 μl of water.
Reaction products were separated and quantified by normal phase HPLC (Agilent Sil 5 μm, 4.6 mm×250 mm) in stepwise gradient of ethyl acetate in hexanes (0-15 min, 10%; 20-30 min, 30%) at a flow rate of 1.4 ml·min^−1.
The properties of retinoid derivatives were examined by two standard enzymatic tests, the […] and retinoid isomerization assays. To identify substrates of LRAT, aldehydes were reduced by sodium borohydrate to their corresponding primary alcohols that then were directly used in the esterification assay (FIG. 2B).
The alcohols were incubated with RPF microsomes that served as a source of LRAT enzymatic activity. Products of the enzymatic reaction as well as the remaining substrates were extracted with organic solvents and analyzed by HPLC. The ratio between a substrate and its esterified form was used to measure enzymatic activity efficiency, based on equivalent UV absorption of the substrate and product at their specific UV maxim wavelengths. Compounds classified as ‘good’ LRAT substrates converted at least 50% of their available alcohol substrates into corresponding esters under these experimental conditions, whereas marginal LRAT substrates were converted at less than 5%. Alcohols with a 5-50% conversion ratio were classified as weak substrates. Among 35 tested compounds, 23 were categorized as good and 9 as weak substrates; 3 compounds were not esterified by LRAT (Table 1 and FIG. 2C). […] Moreover, breaking double bond conjugation along the polyene chain or deletion of a C9 and/or a C13 methyl group also was allowed.

[1] = Analysis of retinoid composition in mouse tissues: amide forms in liver by HPLC; type: in vivo, mice; conditions: oral gavage; for Protection by amide in liver: 4-week-old Abca4−/−Rdh8−/− mice, dark 24 h, liver extracts by HPLC; for amidation in vivo (accumulation of amide forms in mouse liver): liver HPLC
Method: (§2) Abca4^−/−Rdh8^−/− double knockout mice were generated as previously described. Mice were housed in the animal facility at the School of Medicine, Case Western Reserve University, where they were maintained under either complete darkness or in a 12-h light (˜300 lux) and 12-h dark cycle. All tested primary amines were suspended in 100 μl of soybean oil with less than 10% (v/v) DMSO and were administered by oral gavage with a 22-gauge feeding needle. Experimental manipulations in the dark were done under dim red light transmitted through a Kodak No. 1 safelight filter (transmittance >560 nm). All animal procedures and experiments were approved by the Case Western Reserve University Animal Care Committees and conformed to recommendations of the American Veterinary Medical Association Panel on Euthanasia and the Association of Research for Vision and Ophthalmology.
Two mg of primary amines were administered by oral gavage to 4-week-old Abca4^−/−Rdh8^−/− mice, which then were kept in the dark for 24 h. Then mice were euthanized, and their livers were homogenized in 1 ml of 10 mM sodium phosphate buffer, pH 7.4, containing 50% methanol (v/v). The resulting mixture was extracted with 4 ml of hexanes. Extracts were dried in vacuo, and reconstituted in 300 μl of hexanes. 100 μl of this solution was analyzed by HPLC as described above for the LRAT activity assay.
(§3) For practical reasons, only eight of these leading compounds (QEA-B-001-NH2, B-002-NH2, C-001-NH2, C-003-NH2, C006-NH2, E-002-NH2, TEA-B-002-NH2, and C00-2-NH2) along with retinylamine as a control were selected for further testing in Abca4^−/−Rdh8^−/− mice, an animal model for light-induced retinal degeneration (Table 2). Additionally, two novel amines with moderate inhibition of RPE65 (QEA-A-006-NH2 and QEA-B-003-NI 12) and one with strong inhibition (QEA-A-005-NH2) were added to the first test group for comparison. Mice were gavaged with 1 mg of a test compound and then kept in the dark for 24 h prior to being exposed to bright light (˜10,000 lux) for 1 h. Retinal damage was assessed with OCT that measured the thickness of the outer nuclear layer and by quantification of tissue 11-cis retinal levels. An example is shown for imaging results in FIG. 4A and for 11-cis-retinal quantification in FIG. 4B. Additionally, extracts of livers obtained from treated mice were analyzed by HPLC to estimate the amounts of corresponding amides (FIG. 4C).

Abca4^−/−Rdh8^−/− mice = assay: Toxicity in treated Abca4−/−Rdh8−/− mice (Table 2); type: in vivo; conditions: 4-week-old Abca4−/−Rdh8−/− mice, oral gavage
Method: as §2, §3

T1 sequence (Q28175 whole entry): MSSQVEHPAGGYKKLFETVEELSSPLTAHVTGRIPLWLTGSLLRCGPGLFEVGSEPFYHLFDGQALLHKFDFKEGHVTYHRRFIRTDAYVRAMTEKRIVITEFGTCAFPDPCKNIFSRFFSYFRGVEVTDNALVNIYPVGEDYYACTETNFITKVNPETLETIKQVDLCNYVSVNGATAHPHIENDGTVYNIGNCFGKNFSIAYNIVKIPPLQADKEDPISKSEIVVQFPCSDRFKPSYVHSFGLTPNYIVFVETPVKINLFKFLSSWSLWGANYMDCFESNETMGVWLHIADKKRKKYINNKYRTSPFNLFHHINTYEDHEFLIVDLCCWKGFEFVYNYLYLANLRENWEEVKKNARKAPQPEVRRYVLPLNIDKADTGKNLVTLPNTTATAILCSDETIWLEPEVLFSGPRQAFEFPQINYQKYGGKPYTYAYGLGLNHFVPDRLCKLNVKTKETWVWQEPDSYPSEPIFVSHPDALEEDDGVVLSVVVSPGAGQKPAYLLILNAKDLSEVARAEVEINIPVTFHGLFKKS

Row | IC50 (RPE65) [µM] | LRAT Substrate (LRAT) [%] | SMILES | Protection by amide in liver [1] | amidation in vivo (accumulation of amide forms in mouse liver) [1] | Toxicity (Abca4^−/−Rdh8^−/− mice) | inhibition of RPE65 (RPE65)
1 | < 10 | 100 | CC1=C(/C=C/C(C)=C/C=C/C(C)=C/C=C/CN)C(C)(C)CCC1 [PEA-A-001-NH2] |  |  |  | 
2 | < 10 | 90 | CC1=C(/C=C/C(C)=C/C=C/C(C)=C/C=C/CN)C(C)(C)CCC1O (stereo not shown) [PEA-A-002-NH2] |  |  |  | 
3 | < 10 | 90 | CC1=C(/C=C/C(C)=C/C=C/C(C)=C/C=C/CN)C(C)(C)CC(O)C1 (stereo not shown) [PEA-A-003-NH2] |  |  |  | 
4 | < 10 | 100 | CC1=C(/C=C/C(C)=C/C=C/C(C)=C/CN)C(C)(C)CCC1O (stereo not shown) [QEA-A-002-NH2] |  |  |  | 
5 | < 10 | 100 | CC1=C(/C=C/C(C)=C/C=C/C(C)=C/CN)C(C)(C)CC(O)C1 (stereo not shown) [QEA-A-003-NH2] |  |  |  | 
6 | < 10 | 100 | CC1=C(/C=C/C(C)=C/C=C/C=C/CN)C(C)(C)CCC1 [QEA-A-004-NH2] |  |  |  | 
7 |  | 0 | CC1=C(/C=C/C(=C/C=C/C(=C/CN)C(C)(C)C)C(C)(C)C)C(C)(C)CCC1 [QEA-B-004-NH2] |  |  |  | 
8 |  | 0 | CC(C)(C)C(=C\CN)/C=C/C=C(/C=C/C1=CCCCC1)C(C)(C)C [QEA-B-005-NH2] |  |  |  | 
9 | > 200 | 15 | CC(/C=C/C=C(/C=C/c1ccc2c(c1)CCCC2)C(C)(C)C)=C\CN [QEA-C-002-NH2] |  |  |  | 
10 | > 200 | 100 | CC(/C=C/C=C(/C=C/c1ccc(Cl)cc1)c1ccccc1)=C\CN [QEA-C-004-NH2] |  |  |  | 
11 | > 200 | 100 | COc1ccc(C(=C\C=C\C(C)=C\CN)/C=C/c2ccc([N+](=O)[O-])cc2)cc1 [QEA-C-005-NH2] |  |  |  | 
12 | > 200 | 100 | CC(/C=C/C=C1/C=C(C2=CCCCC2)CCC1)=C\CN [QEA-D-001-NH2] |  |  |  | 
13 | > 200 | 100 | CC(/C=C/C=C1/C=C(C2=COCCC2)CCC1)=C\CN [QEA-D-002-NH2] |  |  |  | 
14 | > 200 | 100 | CC(/C=C/C=C(/C=C/C1=CCCCC1)c1ccccc1)=C\CN [QEA-E-001-NH2] |  |  |  | 
15 | 10 to 100 | 100 | CC(/C=C/C=C1/C=C(c2cccnc2)CCC1)=C\CN [QEA-G-001-NH2] |  |  |  | 
16 | 10 to 100 | 100 | COc1ccc(C(=C\C=C\C(C)=C\CN)/C=C/c2cccnc2)cc1 [QEA-G-002-NH2] |  |  |  | 
17 | < 10 | 100 | CC1=C(/C=C/C(C)=C/C=C/CN)C(C)(C)CCC1 [TEA-A-001-NH2] |  |  |  | 
18 | < 10 | 100 | CC1=C(/C=C/C(C)=C/C=C/CN)C(C)(C)CC=C1 [TEA-A-002-NH2] |  |  |  | 
19 | < 10 | 90 | CC1=C(/C=C/C(C)=C/C=C/CN)C(C)(C)CC(O)C1 (stereo not shown) [TEA-A-003-NH2] |  |  |  | 
20 | < 10 | 90 | CC1=C(/C=C/C(C)=C/C=C/CN)C(C)(C)CCC1O (stereo not shown) [TEA-A-004-NH2] |  |  |  | 
21 | > 200 | 100 | CC1=C(/C=C/C(=C/C=C/CN)C(C)(C)C)C(C)(C)CCC1 [TEA-B-001-NH2] |  |  |  | 
22 | > 200 | 20 | CC1=C(/C=C/C(=C/C=C/CN)C(C)(C)C)CCCC1 [TEA-B-003-NH2] |  |  |  | 
23 | > 200 | 30 | NC/C=C/C=C(/C=C/C1=CCCCC1)c1ccccc1 [TEA-B-004-NH2] |  |  |  | 
24 |  | 0 | CC(C)(C)C(=C\C=C\CN)/C=C/c1ccc2c(c1)CCCC2 [TEA-C-001-NH2] |  |  |  | 

Row | SMILES | IC50 (RPE65) [µM] | LRAT Substrate (LRAT) [%] | Protection by amide in liver [1] | amidation in vivo (accumulation of amide forms in mouse liver) [1] | Toxicity (Abca4^−/−Rdh8^−/− mice) | inhibition of RPE65 (RPE65)
25 | CC(/C=C/C1=CCCCC1)=C\C=C\C(C)=C\CN [QEA-A-006-NH2] | 10 to 100 | 100 | None | not efficiently amidated | None | 
26 | CC1=C(/C=C/C(=C/C=C/C(C)=C/CN)C(C)(C)C)CCCC1 [QEA-B-002-NH2] | > 200 | 30 | None | not efficiently amidated | None | did not inhibit
27 | CC1=C(/C=C/C(=C/C=C/C(C)=C/CN)C(C)(C)C)C(C)(C)CCC1 [QEA-B-003-NH2] | 10 to 100 | 100 | Weak | not efficiently amidated | None | 
28 | CC(/C=C/C=C(/C=C/c1ccccc1)C(C)(C)C)=C\CN [QEA-C-001-NH2] | > 200 | 50 | Strong | efficiently converted into amides | Yes | did not inhibit
29 | CC(/C=C/C=C(/C=C/c1ccc(C(F)(F)F)cc1)c1ccccc1)=C\CN [QEA-C-003-NH2] | > 200 | 100 | None | not efficiently amidated | Yes | did not inhibit
